# Measurements published in patent publication US12660819B2, “Herbicidal derivatives” (SYNGENTA CROP PROTECTION AG, priority 2020, dated 2026).
# Columns and labels:
# Assay type in all cases: in vivo
# [1] = system: Amaranthus retoflexus (AMARE); assay: Post-emergence Test (glasshouse, percentage damage to the plant); details: 1000 g/ha unless otherwise stated, evaluated after 13 days; for Post-emergence Test AMARE, percentage damage to the plant (five-point scale): post-emergence spray; for AMARE, percentage damage caused to the plant (five-point scale): post-emergence
# How it was run: (§1)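 Sown pots; spray 1000 g/ha (unless stated) in acetone/water 50:50 + 0.5% Tween 20; glasshouse 24/16 °C, 14 h light, 65% RH; watered twice daily; % damage read at 13 days, scored 1–5.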
# [2] = system: Echinochloa crus-galli (ECHCG); assay: as above; details: 1000 g/ha unless otherwise stated, evaluated after 13 days; for Post-emergence Test ECHCG, percentage damage to the plant (five-point scale): post-emergence spray; for ECHCG, percentage damage caused to the plant (five-point scale): post-emergence
# How it was run: as §1
# [3] = system: Ipomoea hederacea (IPOHE); assay: as above; details: 1000 g/ha unless otherwise stated, evaluated after 13 days; for Post-emergence Test IPOHE, percentage damage to the plant (five-point scale): post-emergence spray; for IPOHE, percentage damage caused to the plant (five-point scale): post-emergence
# How it was run: (§2)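 Seeds are sown in standard soil under controlled glasshouse conditions. The pots are then sprayed at 1000 g/ha, unless otherwise stated, with compound in acetone/water (50:50) containing 0.5% Tween 20. After 13 days further growth, percentage plant damage is scored from 1 (0-20%) to 5 (81-100%).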
# [4] = system: Setaria faberi (SETFA); assay: as above; details: 1000 g/ha unless otherwise stated, evaluated after 13 days; for Post-emergence Test SETFA, percentage damage to the plant (five-point scale): post-emergence spray; for SETFA, percentage damage caused to the plant (five-point scale): post-emergence
# How it was run: as §2
# [5] = system: Zea mays (ZEAMX); assay: as above; details: 1000 g/ha unless otherwise stated, evaluated after 13 days; for Post-emergence Test ZEAMX, percentage damage to the plant (five-point scale): post-emergence spray; for ZEAMX, percentage damage caused to the plant (five-point scale): post-emergence
# How it was run: as §2
# [6] = system: Amaranthus retoflexus (AMARE); assay: Pre-emergence Test (glasshouse, percentage damage to the plant); details: 1000 g/ha unless otherwise stated; for percentage damage to the plant, AMARE: five-point scale; for percentage damage to the plant, AMARE (five-point scale): Amaranthus retoflexus
# [7] = system: Setaria faberi (SETFA); assay: as above; details: 1000 g/ha unless otherwise stated; for percentage damage to the plant, SETFA: five-point scale; for percentage damage to the plant, SETFA (five-point scale): Setaria faberi
# [8] = system: Echinochloa crus-galli (ECHCG); assay: as above; details: 1000 g/ha unless otherwise stated; for percentage damage to the plant, ECHCG: five-point scale; for percentage damage to the plant, ECHCG (five-point scale): Echinochloa crus-galli
# [9] = system: Ipomoea hederacea (IPOHE); assay: as above; details: 1000 g/ha unless otherwise stated; for percentage damage to the plant, IPOHE: five-point scale; for percentage damage to the plant, IPOHE (five-point scale): Ipomoea hederacea
# [10] = system: Abutilon theophrasti (ABUTH); assay: as above; details: 1000 g/ha unless otherwise stated; for percentage damage to the plant, ABUTH: five-point scale; for percentage damage to the plant, ABUTH (five-point scale): Abutilon theophrasti
# [11] = system: Zea mays (ZEAMX); assay: as above; details: 1000 g/ha unless otherwise stated; for percentage damage to the plant, ZEAMX: five-point scale; for percentage damage to the plant, ZEAMX (five-point scale): Zea mays
# [12] = system: Abutilon theophrasti (ABUTH); assay: Post-emergence Test (glasshouse, percentage damage to the plant); details: post-emergence; 1000 g/ha unless otherwise stated; evaluated after 13 days
# How it was run: as §1
Structure (SMILES),"Post-emergence Test AMARE, percentage damage to the plant (five-point scale) [1]","Post-emergence Test ECHCG, percentage damage to the plant (five-point scale) [2]","Post-emergence Test IPOHE, percentage damage to the plant (five-point scale) [3]","Post-emergence Test SETFA, percentage damage to the plant (five-point scale) [4]","Post-emergence Test ZEAMX, percentage damage to the plant (five-point scale) [5]","percentage damage to the plant, AMARE [6]","percentage damage to the plant, SETFA [7]","percentage damage to the plant, ECHCG [8]","percentage damage to the plant, IPOHE [9]","percentage damage to the plant, ABUTH [10]","percentage damage to the plant, ZEAMX [11]","AMARE, percentage damage caused to the plant (five-point scale) [1]","IPOHE, percentage damage caused to the plant (five-point scale) [3]","SETFA, percentage damage caused to the plant (five-point scale) [4]","ZEAMX, percentage damage caused to the plant (five-point scale) [5]","percentage damage to the plant, AMARE (five-point scale) [6]","percentage damage to the plant, SETFA (five-point scale) [7]","percentage damage to the plant, ECHCG (five-point scale) [8]","percentage damage to the plant, IPOHE (five-point scale) [9]","percentage damage to the plant, ZEAMX (five-point scale) [11]",also measured
"CCn1c(C)c(-c2cc(C)c(F)c(C)c2)c(=O)c(C(=O)O)c1-c1ccc(Cl)cc1 [Compound 173, 2-(4-chlorophenyl)-1-ethyl-5-(4-fluoro-3,5-dimethyl-phenyl)-6-methyl-4-oxo-pyridine-3-carboxylic acid]",3 (3=41-60%),1 (1=0-20%),3 (3=41-60%),2 (2=21-40%),2 (2=21-40%),0,0,0,0,0,0,,,,,,,,,,
"CCn1c(C)c(-c2ccc(F)c(C#N)c2)c(=O)c(C(=O)O)c1-c1ccc(Cl)cc1 [Compound 174, 2-(4-chlorophenyl)-5-(3-cyano-4-fluoro-phenyl)-1-ethyl-6-methyl-4-oxo-pyridine-3-carboxylic acid]",2 (2=21-40%),2 (2=21-40%),4 (4=61-80%),3 (3=41-60%),1 (1=0-20%),1 (1=0-20%),2 (2=21-40%),3 (3=41-60%),1 (1=0-20%),1 (1=0-20%),1 (1=0-20%),,,,,,,,,,
"CCn1c(C)c(-c2cc(F)ccc2Cl)c(=O)c(C(=O)O)c1-c1ccc(Cl)cc1 [Compound 175, 5-(2-chloro-5-fluoro-phenyl)-2-(4-chlorophenyl)-1-ethyl-6-methyl-4-oxo-pyridine-3-carboxylic acid]",1 (1=0-20%),2 (2=21-40%),3 (3=41-60%),3 (3=41-60%),1 (1=0-20%),0,2 (2=21-40%),1 (1=0-20%),3 (3=41-60%),0,1 (1=0-20%),,,,,,,,,,
"CCOc1cc(-c2c(C)n(CC)c(-c3ccc(Cl)cc3)c(C(=O)O)c2=O)ccc1C(F)(F)F [Compound 176, 2-(4-chlorophenyl)-5-[3-ethoxy-4-(trifluoromethyl)phenyl]-1-ethyl-6-methyl-4-oxo-pyridine-3-carboxylic acid]",2 (2=21-40%),1 (1=0-20%),1 (1=0-20%),1 (1=0-20%),1 (1=0-20%),0,0,,0,0,0,,,,,,,,,,
"CCn1c(C)c(-c2cc(Cl)c(F)c(Cl)c2)c(=O)c(C(=O)O)c1-c1ccc(Cl)cc1 [Compound 178, 2-(4-chlorophenyl)-5-(3,5-dichloro-4-fluoro-phenyl)-1-ethyl-6-methyl-4-oxo-pyridine-3-carboxylic acid]",1 (1=0-20%),1 (1=0-20%),1 (1=0-20%),0,1 (1=0-20%),0,0,0,0,0,0,,,,,,,,,,
"CCn1c(C)c(-c2cccc(OC)c2F)c(=O)c(C(=O)O)c1-c1ccc(Cl)cc1 [Compound 179, 2-(4-chlorophenyl)-1-ethyl-5-(2-fluoro-3-methoxy-phenyl)-6-methyl-4-oxo-pyridine-3-carboxylic acid]",2 (2=21-40%),2 (2=21-40%),3 (3=41-60%),3 (3=41-60%),1 (1=0-20%),1 (1=0-20%),1 (1=0-20%),1 (1=0-20%),3 (3=41-60%),3 (3=41-60%),0,,,,,,,,,,
"CCn1c(C)c(-c2ccc(C#N)cc2)c(=O)c(C(=O)O)c1-c1ccc(Cl)cc1 [Compound 198, 2-(4-chlorophenyl)-5-(4-cyanophenyl)-1-ethyl-6-methyl-4-oxo-pyridine-3-carboxylic acid]",,,,,,,,,,,,2 (2=21-40%),1 (1=0-20%),2 (2=21-40%),1 (1=0-20%),0,0,0,1 (1=0-20%),0,"ECHCG, percentage damage caused to the plant (five-point scale) [2]: 1 (1=0-20%); percentage damage to the plant, ABUTH (five-point scale) [10]: 0"
"CCn1c(CCOC)c(-c2ccc(Cl)cc2)c(=O)c(C(=O)O)c1-c1ccc(Cl)c(Cl)c1 [Compound 203, 5-(4-chlorophenyl)-2-(3,4-dichlorophenyl)-1-ethyl-6-(2-methoxyethyl)-4-oxo-pyridine-3-carboxylic acid]",,,,,,,,,,,,0,0,0,1 (1=0-20%),0,0,1 (1=0-20%),0,0,"ABUTH, percentage damage caused to the plant (five-point scale) [12]: 0"
"CCn1c(C)c(-c2cccc(C(F)(F)F)n2)c(=O)c(C(=O)O)c1-c1ccc(Cl)c(Cl)c1 [Compound 217, 2-(3,4-dichlorophenyl)-1-ethyl-6-methyl-4-oxo-5-[6-(trifluoromethyl)-2-pyridyl]pyridine-3-carboxylic acid]",,,,,,,,,,,,0,3 (3=41-60%),2 (2=21-40%),0,0,2 (2=21-40%),1 (1=0-20%),3 (3=41-60%),1 (1=0-20%),"ECHCG, percentage damage caused to the plant (five-point scale) [2]: 1 (1=0-20%); percentage damage to the plant, ABUTH (five-point scale) [10]: 3 (3=41-60%)"
